For assay [1], the target named is Sodium channel protein type 5 subunit alpha (Homo sapiens, UniProt Q14524). The class given is functional, cell-based.
Assay [2] addresses T1, Histamine H1 receptor (Homo sapiens, UniProt P35367). The class given is functional, cell-based.
The target of assay [3] is T1, Histamine H1 receptor. Format: functional, cell-based. The source holds these as a separate data set.
A further assay addresses T2, D(4) dopamine receptor (Homo sapiens, UniProt P21917).
T2 sequence (P21917 whole entry): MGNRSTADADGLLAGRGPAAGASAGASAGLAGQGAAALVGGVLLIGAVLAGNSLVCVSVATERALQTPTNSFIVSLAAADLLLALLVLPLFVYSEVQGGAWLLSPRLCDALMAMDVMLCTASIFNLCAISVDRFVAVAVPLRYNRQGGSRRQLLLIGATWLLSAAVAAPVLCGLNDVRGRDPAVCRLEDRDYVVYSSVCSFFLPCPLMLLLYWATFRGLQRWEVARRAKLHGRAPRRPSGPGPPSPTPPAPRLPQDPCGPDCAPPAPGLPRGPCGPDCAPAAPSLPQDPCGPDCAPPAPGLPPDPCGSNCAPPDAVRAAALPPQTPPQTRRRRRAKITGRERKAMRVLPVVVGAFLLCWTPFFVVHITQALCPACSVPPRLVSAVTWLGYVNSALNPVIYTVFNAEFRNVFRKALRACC

In a further assay the target is Substance-P receptor (Homo sapiens, UniProt P25103).
Chain of Substance-P receptor (P25103 whole entry): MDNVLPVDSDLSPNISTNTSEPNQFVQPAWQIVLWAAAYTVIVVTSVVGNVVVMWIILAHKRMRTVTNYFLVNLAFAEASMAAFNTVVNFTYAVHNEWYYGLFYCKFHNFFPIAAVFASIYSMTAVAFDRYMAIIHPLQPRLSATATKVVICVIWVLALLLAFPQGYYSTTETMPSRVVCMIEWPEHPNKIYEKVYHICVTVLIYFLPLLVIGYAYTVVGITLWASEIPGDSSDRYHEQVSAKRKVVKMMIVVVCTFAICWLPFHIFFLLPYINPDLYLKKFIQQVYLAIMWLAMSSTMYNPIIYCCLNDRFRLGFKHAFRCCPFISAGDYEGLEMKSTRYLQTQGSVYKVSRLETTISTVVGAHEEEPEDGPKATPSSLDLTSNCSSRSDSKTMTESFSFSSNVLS
Assay [4] concerns the target T3, Peroxisome proliferator-activated receptor gamma (Homo sapiens, UniProt P37231).
T3 sequence (P37231 whole entry): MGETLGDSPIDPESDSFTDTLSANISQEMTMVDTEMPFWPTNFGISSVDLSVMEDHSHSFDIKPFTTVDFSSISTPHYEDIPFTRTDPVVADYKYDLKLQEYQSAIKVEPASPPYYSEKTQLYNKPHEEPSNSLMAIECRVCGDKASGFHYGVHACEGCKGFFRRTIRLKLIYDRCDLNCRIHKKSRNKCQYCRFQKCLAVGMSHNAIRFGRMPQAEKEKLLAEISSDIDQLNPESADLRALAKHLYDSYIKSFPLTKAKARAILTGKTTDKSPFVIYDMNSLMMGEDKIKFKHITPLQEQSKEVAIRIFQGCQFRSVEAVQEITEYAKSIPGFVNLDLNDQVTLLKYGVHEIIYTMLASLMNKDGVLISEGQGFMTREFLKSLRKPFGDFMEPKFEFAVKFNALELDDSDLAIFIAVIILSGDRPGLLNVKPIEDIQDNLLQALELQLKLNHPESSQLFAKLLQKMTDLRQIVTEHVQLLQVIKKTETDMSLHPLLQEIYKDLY
The class given is functional.

The target of assay [5] is T3, Peroxisome proliferator-activated receptor gamma. The class given is functional. This is another data set of the same source.
Another assay addresses T4, Estrogen receptor (Homo sapiens, UniProt P03372).
T4 sequence (P03372 whole entry): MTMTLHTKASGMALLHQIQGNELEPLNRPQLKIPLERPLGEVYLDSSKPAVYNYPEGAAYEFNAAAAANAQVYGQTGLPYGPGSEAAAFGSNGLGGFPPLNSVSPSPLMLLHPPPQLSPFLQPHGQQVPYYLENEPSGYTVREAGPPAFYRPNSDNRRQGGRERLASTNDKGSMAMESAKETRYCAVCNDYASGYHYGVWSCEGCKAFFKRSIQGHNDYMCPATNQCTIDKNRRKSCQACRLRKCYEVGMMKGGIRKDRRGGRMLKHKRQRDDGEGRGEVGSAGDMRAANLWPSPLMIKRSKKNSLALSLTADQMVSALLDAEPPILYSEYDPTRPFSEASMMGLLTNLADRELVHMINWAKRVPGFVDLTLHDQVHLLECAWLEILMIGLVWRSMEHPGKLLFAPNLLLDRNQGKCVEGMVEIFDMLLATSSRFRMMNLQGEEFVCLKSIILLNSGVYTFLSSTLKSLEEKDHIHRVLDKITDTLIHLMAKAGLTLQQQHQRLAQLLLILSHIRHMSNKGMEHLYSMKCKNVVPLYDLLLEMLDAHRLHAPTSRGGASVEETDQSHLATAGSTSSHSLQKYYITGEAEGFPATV
Format: functional.

For the next assay, the target named is Cannabinoid receptor 1 (Homo sapiens, UniProt P21554). The class given is functional.
Chain of Cannabinoid receptor 1 (P21554 whole entry): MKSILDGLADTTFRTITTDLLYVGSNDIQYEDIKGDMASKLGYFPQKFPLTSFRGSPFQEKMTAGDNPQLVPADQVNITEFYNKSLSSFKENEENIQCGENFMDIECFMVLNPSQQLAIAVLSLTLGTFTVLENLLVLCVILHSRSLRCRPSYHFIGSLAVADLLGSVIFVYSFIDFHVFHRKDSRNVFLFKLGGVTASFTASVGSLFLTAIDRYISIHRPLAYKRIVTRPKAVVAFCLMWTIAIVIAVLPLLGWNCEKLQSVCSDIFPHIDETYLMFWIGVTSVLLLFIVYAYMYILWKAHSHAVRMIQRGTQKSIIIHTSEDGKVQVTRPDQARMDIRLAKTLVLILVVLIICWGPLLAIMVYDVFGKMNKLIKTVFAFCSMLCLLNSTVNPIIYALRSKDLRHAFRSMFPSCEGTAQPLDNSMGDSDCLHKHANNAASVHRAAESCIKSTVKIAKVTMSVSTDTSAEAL
The target of another assay is T5, Substance-K receptor (Homo sapiens, UniProt P21452).
T5 sequence (P21452 whole entry): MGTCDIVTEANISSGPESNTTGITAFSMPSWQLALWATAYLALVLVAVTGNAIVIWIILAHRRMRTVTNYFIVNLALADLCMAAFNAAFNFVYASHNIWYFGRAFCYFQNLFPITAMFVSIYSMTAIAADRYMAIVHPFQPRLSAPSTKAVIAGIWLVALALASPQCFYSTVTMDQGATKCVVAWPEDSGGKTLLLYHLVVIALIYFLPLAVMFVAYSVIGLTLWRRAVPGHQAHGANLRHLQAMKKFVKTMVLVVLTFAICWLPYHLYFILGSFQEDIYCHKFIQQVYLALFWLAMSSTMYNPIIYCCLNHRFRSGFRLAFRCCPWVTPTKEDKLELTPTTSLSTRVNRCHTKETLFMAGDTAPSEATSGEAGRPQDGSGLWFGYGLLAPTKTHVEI

As usually defined, the AC50 is the midpoint of the concentration-response curve, whichever way the signal moves.
Also: assay procedure not described here.

Chain of Sodium channel protein type 5 subunit alpha (Q14524 whole entry): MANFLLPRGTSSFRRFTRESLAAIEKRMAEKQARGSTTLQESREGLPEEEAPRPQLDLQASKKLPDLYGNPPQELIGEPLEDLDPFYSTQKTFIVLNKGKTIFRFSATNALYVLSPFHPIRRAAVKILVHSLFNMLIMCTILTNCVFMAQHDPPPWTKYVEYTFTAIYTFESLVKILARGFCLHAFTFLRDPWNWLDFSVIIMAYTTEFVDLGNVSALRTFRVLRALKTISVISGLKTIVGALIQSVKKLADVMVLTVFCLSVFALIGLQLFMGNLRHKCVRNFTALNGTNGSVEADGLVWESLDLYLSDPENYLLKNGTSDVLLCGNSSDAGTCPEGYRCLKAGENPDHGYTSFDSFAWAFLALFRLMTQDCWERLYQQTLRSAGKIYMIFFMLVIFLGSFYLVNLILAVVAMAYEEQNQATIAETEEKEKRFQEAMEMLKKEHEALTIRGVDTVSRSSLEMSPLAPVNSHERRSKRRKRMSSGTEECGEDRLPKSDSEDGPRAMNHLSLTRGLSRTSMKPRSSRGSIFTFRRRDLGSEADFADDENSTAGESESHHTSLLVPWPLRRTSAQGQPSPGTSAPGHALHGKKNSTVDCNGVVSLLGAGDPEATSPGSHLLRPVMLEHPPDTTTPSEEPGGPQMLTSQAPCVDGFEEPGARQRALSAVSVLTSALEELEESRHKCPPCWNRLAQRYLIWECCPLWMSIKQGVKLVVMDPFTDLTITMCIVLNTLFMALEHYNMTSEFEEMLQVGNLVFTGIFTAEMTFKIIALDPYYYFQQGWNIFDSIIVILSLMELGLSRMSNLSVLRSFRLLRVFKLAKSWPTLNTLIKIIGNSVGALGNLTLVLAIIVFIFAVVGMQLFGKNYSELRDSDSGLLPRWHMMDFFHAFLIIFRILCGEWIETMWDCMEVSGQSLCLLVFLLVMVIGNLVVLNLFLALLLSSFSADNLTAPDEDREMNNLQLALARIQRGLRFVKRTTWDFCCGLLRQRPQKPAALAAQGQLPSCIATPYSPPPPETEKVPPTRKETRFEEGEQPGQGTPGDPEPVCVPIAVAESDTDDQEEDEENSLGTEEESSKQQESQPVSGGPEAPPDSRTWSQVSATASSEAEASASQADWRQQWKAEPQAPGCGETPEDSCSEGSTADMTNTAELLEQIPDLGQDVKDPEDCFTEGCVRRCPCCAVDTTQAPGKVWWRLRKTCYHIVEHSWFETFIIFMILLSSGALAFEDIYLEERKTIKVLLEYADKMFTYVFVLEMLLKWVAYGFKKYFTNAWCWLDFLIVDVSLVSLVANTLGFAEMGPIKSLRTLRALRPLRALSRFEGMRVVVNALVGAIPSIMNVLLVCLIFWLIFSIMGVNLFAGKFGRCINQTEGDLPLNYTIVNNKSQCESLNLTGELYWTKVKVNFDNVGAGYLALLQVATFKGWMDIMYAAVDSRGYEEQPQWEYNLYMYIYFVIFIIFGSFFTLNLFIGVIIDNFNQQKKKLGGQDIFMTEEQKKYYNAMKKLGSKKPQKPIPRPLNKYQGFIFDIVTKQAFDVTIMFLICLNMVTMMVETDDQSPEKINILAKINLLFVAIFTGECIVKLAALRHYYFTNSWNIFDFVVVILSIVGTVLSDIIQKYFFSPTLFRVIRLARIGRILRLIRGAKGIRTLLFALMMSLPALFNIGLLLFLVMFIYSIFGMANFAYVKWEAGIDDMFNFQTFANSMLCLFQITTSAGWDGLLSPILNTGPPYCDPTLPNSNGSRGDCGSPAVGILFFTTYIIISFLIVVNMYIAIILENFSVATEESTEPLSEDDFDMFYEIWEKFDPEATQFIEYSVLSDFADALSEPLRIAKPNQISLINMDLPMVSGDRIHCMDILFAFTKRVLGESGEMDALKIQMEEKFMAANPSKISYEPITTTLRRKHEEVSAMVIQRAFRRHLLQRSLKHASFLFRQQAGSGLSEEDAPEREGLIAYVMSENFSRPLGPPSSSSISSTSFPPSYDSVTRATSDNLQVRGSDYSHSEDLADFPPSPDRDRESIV
T1 sequence (P35367 whole entry): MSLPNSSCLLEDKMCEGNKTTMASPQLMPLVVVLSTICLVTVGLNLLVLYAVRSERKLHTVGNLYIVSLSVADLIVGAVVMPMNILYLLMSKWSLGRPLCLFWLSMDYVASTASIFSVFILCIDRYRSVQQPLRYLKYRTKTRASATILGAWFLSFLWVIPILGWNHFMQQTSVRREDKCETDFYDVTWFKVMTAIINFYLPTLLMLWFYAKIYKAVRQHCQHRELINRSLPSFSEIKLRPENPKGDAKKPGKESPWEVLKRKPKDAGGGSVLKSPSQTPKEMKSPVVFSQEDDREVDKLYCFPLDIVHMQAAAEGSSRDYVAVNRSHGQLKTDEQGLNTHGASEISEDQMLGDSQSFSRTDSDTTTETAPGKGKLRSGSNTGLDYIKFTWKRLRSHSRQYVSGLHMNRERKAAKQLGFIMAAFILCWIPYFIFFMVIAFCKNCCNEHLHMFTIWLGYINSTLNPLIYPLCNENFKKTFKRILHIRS

With `O=C(O)c1ccc2nc(-c3cc(Cl)cc(Cl)c3)oc2c1`, the concentration at half-maximal activity (AC50) in assay [1] was more than 30 µM.
Turning to `NS(=O)(=O)c1ccc(N2CCCCS2(=O)=O)cc1`, the AC50 on Histamine H1 receptor [2] and on Histamine H1 receptor [3] was more than 30 µM in each case.
With `O=C(O[C@H]1C[N+]2(CCCOc3ccccc3)CCC1CC2)C(O)(c1cccs1)c1cccs1` [ACLIDINIUM BROMIDE], the AC50 is more than 10 µM on D(4) dopamine receptor and 0.497 µM on Substance-P receptor.
`Cc1nnc2n1-c1ccc(Cl)cc1C(c1ccccc1)=NC2` [ALPRAZOLAM]: the AC50 at D(4) dopamine receptor and at Substance-P receptor was more than 10 µM throughout.
Turning to `COc1ccc(-n2nc(C(N)=O)c3c2C(=O)N(c2ccc(N4CCCCC4=O)cc2)CC3)cc1` [APIXABAN], the AC50 in assay [4] is more than 30 µM; in assay [1], more than 50 µM; in [5] it was more than 30 µM; on Estrogen receptor, more than 30 µM.
As to `CCN(CC)CCCN(c1ccccc1)C1Cc2ccccc2C1` [APRINDINE], the half-maximal activity concentration (AC50) in [4] is more than 30 µM; at Histamine H1 receptor [2] it was 8 µM; on Histamine H1 receptor [3] it was more than 30 µM; in assay [5], more than 30 µM.
For `CC(NC(C)(C)C)C(=O)c1cccc(Cl)c1` (stereo not given) [BUPROPION], the AC50 at Cannabinoid receptor 1 is more than 10 µM; in [1] it was more than 30 µM; on Substance-K receptor, more than 10 µM; at D(4) dopamine receptor, more than 10 µM; at Substance-P receptor, more than 10 µM.
Take `CC(=O)OCC1=C(C(=O)O)N2C(=O)[C@@H](NC(=O)Cc3cccs3)[C@H]2SC1` [CEPHALOTHIN]: the half-maximal activity concentration (AC50) in assay [4] and in assay [5] was more than 30 µM in each case.
Take `CC1=C(C(=O)O)N2C(=O)[C@@H](NC(=O)[C@H](N)C3=CCC=CC3)[C@H]2SC1` [CEPHRADINE]: the AC50 in assay [4] and in assay [5] was more than 30 µM throughout.
`COc1ccc(C(Cl)=C(c2ccc(OC)cc2)c2ccc(OC)cc2)cc1` [CHLOROTRIANISENE]: the AC50 on Histamine H1 receptor [2] and on Histamine H1 receptor [3] was more than 30 µM each time.
For the compound `Oc1cc(O)c2c(c1)O[C@H](c1ccc(O)c(O)c1)[C@@H](O)C2` [CIANIDANOL], the AC50 at Histamine H1 receptor [2] and on Histamine H1 receptor [3] was more than 30 µM in each case.
On to `O=C1CN=C(c2ccccc2Cl)c2cc([N+](=O)[O-])ccc2N1` [CLONAZEPAM], for which the AC50 on D(4) dopamine receptor and on Substance-P receptor was more than 10 µM each time.
With `CCCCCCOC(=O)NC(=N)c1ccc(NCc2nc3cc(C(=O)N(CCC(=O)OCC)c4ccccn4)ccc3n2C)cc1` [DABIGATRAN ETEXILATE], the half-maximal activity concentration (AC50) in assay [4] was more than 30 µM; in assay [1] it was 3 µM; in assay [5] it was more than 30 µM; at Estrogen receptor it was more than 30 µM.
On to `Cc1ccc(-c2ncc(Cl)cc2-c2ccc(S(C)(=O)=O)cc2)cn1` [ETORICOXIB], for which the AC50 on Cannabinoid receptor 1 was more than 10 µM; at Substance-K receptor it was more than 10 µM; on D(4) dopamine receptor it was more than 10 µM; on Histamine H1 receptor [2], more than 30 µM; on Histamine H1 receptor [3], more than 30 µM; at Substance-P receptor, more than 10 µM.
`Cc1cnc(Nc2ccc(OCCN3CCCC3)cc2)nc1Nc1cccc(S(=O)(=O)NC(C)(C)C)c1` [FEDRATINIB] registered a half-maximal activity concentration (AC50) in [1] of 7.7 µM.
Consider `CCOC(=O)C1=C(C)NC(C)=C(C(=O)OC)C1c1cccc(Cl)c1Cl` (stereo not given) [FELODIPINE], for which the AC50 at D(4) dopamine receptor and on Substance-P receptor was more than 10 µM each time.
For the compound `CN1C(=O)CN=C(c2ccccc2F)c2cc([N+](=O)[O-])ccc21` [FLUNITRAZEPAM], the concentration at half-maximal activity (AC50) at D(4) dopamine receptor and on Substance-P receptor was more than 10 µM throughout.
In the case of `CN1C2CCCC1CC(NC(=O)c1nn(C)c3ccccc13)C2` (stereo not given) [GRANISETRON], the AC50 at Cannabinoid receptor 1 was more than 10 µM; in [1], more than 30 µM; on Substance-K receptor it was more than 10 µM; at D(4) dopamine receptor it was more than 10 µM; at Substance-P receptor, more than 10 µM.
With `COc1ccc2c3c1O[C@H]1C(=O)CC[C@H]4[C@@H](C2)N(C)CC[C@]314` [HYDROCODONE], the concentration at half-maximal activity (AC50) in [1] is more than 50 µM; at D(4) dopamine receptor it was more than 10 µM; at Substance-P receptor, more than 10 µM.
As to `CCC(=O)O[C@H](CC(=O)O)C[N+](C)(C)C` [LEVOCARNITINE PROPIONATE], the half-maximal activity concentration (AC50) (in assay [4]; at Histamine H1 receptor [2]; on Histamine H1 receptor [3]; in [5]) was more than 30 µM in each case.
Turning to `CCN(CC)CC(=O)Nc1c(C)cccc1C` [LIDOCAINE], the AC50 at Substance-K receptor and at Substance-P receptor was more than 10 µM throughout.
In the case of `O=C(O)c1nn(Cc2ccc(Cl)cc2Cl)c2ccccc12` [LONIDAMINE], the AC50 (in assay [4]; at Histamine H1 receptor [2]; at Histamine H1 receptor [3]; in [5]) was more than 30 µM in each case.
With `COC(=O)c1ccc2c(c1)NC(=O)/C2=C(\Nc1ccc(N(C)C(=O)CN2CCN(C)CC2)cc1)c1ccccc1` [NINTEDANIB], the concentration at half-maximal activity (AC50) in assay [4] was 4.8 µM; in assay [1], 13 µM; in assay [5], more than 30 µM; on Estrogen receptor, more than 10 µM.
As for `CC1NCCOC1c1ccccc1` (stereo not given) [PHENMETRAZINE], the AC50 at Histamine H1 receptor [2] and at Histamine H1 receptor [3] was more than 30 µM in each case.
Consider `CS(=O)(=O)NC(=O)CCC/C=C\C[C@H]1C(=O)C[C@@H](O)[C@@H]1/C=C/[C@@H](O)COc1ccccc1` [SULPROSTONE], for which the AC50 (in [4]; at Histamine H1 receptor [2]; at Histamine H1 receptor [3]; in assay [5]) was more than 30 µM throughout.
For the compound `CCCCC[C@H](O)CC[C@@H]1[C@H]2Cc3cccc(OCC(=O)O)c3C[C@H]2C[C@H]1O` [TREPROSTINIL], the half-maximal activity concentration (AC50) in assay [4] and in assay [5] was more than 30 µM throughout.
As for `CCCCCCCC(=O)CC[C@@H]1[C@@H](C/C=C\CCCC(=O)O)[C@@H](O)C[C@H]1O` [UNOPROSTONE], the concentration at half-maximal activity (AC50) was more than 30 µM in [4]; more than 50 µM in assay [1]; more than 30 µM at Histamine H1 receptor [2]; more than 30 µM at Histamine H1 receptor [3]; more than 30 µM in [5].

(Values after ChEMBL document CHEMBL5291721, “A preclinical secondary pharmacology resource illuminates target-adverse drug reaction associations of marketed drugs” (Nat Commun, 2023).)
